Assay results: patent US20250268887A1, “THERAPEUTIC USES OF BRADYKININ B2-RECEPTOR ANTAGONISTS” (Pharvaris GmbH, priority 2022, published 2025)

Assay: Elimination half-life
Conditions: human, in vivo

Molecule `[2H][C@@](C)(NC(=O)COC(F)F)c1cc(F)cc(Cl)c1COc1cccc2c(-c3ncnn3C)cc(C)nc12` [PHA-022121, (S)-N-(1-deutero-1-(3-chloro-5-fluoro-2-((2-methyl-4-(1-methyl-1H-1,2,4-triazol-5-yl)quinolin-8-yloxy)methyl)phenyl)ethyl)-2-(difluoromethoxy)acetamide] has a half-life of ~4 h.
